Experimental data: ChEMBL document CHEMBL1136077, “Nicotinyl aspartyl ketones as inhibitors of caspase-3” (Bioorg Med Chem Lett, 2003)

These compounds were tested against T1, Caspase-3 (Homo sapiens, UniProt P42574) (assay: Inhibitory concentration required against human Caspase-3). Settings: not given.
T1 sequence (P42574 whole entry): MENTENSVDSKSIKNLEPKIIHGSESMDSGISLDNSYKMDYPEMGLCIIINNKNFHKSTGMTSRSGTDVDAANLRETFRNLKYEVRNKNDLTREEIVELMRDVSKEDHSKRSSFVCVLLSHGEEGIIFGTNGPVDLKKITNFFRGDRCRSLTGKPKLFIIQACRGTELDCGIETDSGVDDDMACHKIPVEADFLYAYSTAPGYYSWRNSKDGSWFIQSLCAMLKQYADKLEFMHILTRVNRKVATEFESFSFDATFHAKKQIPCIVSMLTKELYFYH
With O=C[C@H](CC(=O)O)NC(=O)c1ccncc1 the IC50 was over 200 µM.

These compounds were tested on NT2 (assay: Inhibitory concentration required against NT2 cells). Settings: Homo sapiens.
With O=C(O)C[C@H](NC(=O)c1cncc(S(=O)(=O)NC2CC2)c1)C(=O)Oc1ccccc1 the IC50 was 4.3 µM.
CN(C1CC1)S(=O)(=O)c1cncc(C(=O)N[C@@H](CC(=O)O)C(=O)CSCc2ccc(F)cc2)c1 showed an IC50 of 22 µM.
Compound CCCN(CCC)S(=O)(=O)c1cncc(C(=O)N[C@@H](CC(=O)O)C(=O)CSCc2ccc(F)cc2)c1 has an IC50 of 25 µM.
Work on CC(C)CN(CC(C)C)C(=O)c1cncc(C(=O)N[C@@H](CC(=O)O)C(=O)CSCc2ccc(F)cc2)c1 yielded an IC50 of 39 µM.
CC(=O)N[C@@H](CC(=O)O)C(=O)N[C@@H](CCC(=O)O)C(=O)N[C@H](C(=O)N[C@H](C=O)CC(=O)O)C(C)C was tested, and the IC50 was over 100 µM.
For O=C(O)C[C@H](NC(=O)c1cncc(S(=O)(=O)NCc2ccccc2)c1)C(=O)CSCc1ccc(F)cc1, the IC50 was 59 µM.
With O=C[C@H](CC(=O)O)NC(=O)c1cncc(S(=O)(=O)NC2CC2)c1 the IC50 was 57 µM.
For CCN(C(=O)c1cncc(C(=O)N[C@@H](CC(=O)O)C(=O)CSCc2ccc(F)cc2)c1)C(C)C, the IC50 was 16 µM.
Compound CN(C)S(=O)(=O)c1cncc(C(=O)N[C@@H](CC(=O)O)C(=O)CSCc2ccc(F)cc2)c1 has an IC50 of 21 µM.
CCN(CC)C(=O)c1cncc(C(=O)N[C@@H](CC(=O)O)C(=O)CSCc2ccc(F)cc2)c1 was tested, and the IC50 was over 100 µM.
O=C(O)C[C@H](NC(=O)c1cncc(S(=O)(=O)NC2CC2)c1)C(=O)CSCc1ccc(F)cc1 showed an IC50 of 8 µM.
With CCCN(CCC)C(=O)c1cncc(C(=O)N[C@@H](CC(=O)O)C(=O)CSCc2ccc(F)cc2)c1 the IC50 was over 100 µM.
With CCN(CC)S(=O)(=O)c1cncc(C(=O)N[C@@H](CC(=O)O)C(=O)CSCc2ccc(F)cc2)c1 the IC50 was 12 µM.
With O=C(O)C[C@H](NC(=O)c1cncc(S(=O)(=O)NC2CC2)c1)C(=O)COC(=O)c1cccc2ccccc12 the IC50 was 1.3 µM.
In the case of O=C(O)C[C@H](NC(=O)c1cncc(S(=O)(=O)NC2CC2)c1)C(=O)CNCc1c(F)cccc1F, the IC50 is reported as 53 µM.
